The text below walks through data of US20170325459A1, “BICYCLIC COMPOUNDS AS PEST CONTROL AGENTS” (Bayer CropScience Aktiengesellschaft, priority 2014, published 2017).

The term chromatographic logP denotes lipophilicity estimated from chromatographic retention. The low end stands for lower lipophilicity, the high end for higher lipophilicity.

One data set relates to Myzus persicae. The data set is described as follows: Myzus persicae spray test. Type of data set: in vivo. The settings on record: application rate 500 g/ha, Chinese cabbage leaf discs, after 6 days; for pest or weed control at 500 g/ha: Myzus persicae, foliar, 144 h, read-out: efficacy (aphids killed). How it is done:
Myzus persicae—Spray Test Solvent: 78 parts by weight of acetone • • 1.5 parts by weight of dimethylformamide Emulsifier: alkylaryl polyglycol ether To produce a suitable active ingredient formulation, 1 part by weight of active ingredient is dissolved using the specified parts by weight of solvent and made up with water containing an emulsifier concentration of 1000 ppm until the desired concentration is attained. To produce further test concentrations, the formulation is diluted with emulsifier-containing water. Discs of Chinese cabbage leaves (Brassica pekinensis) infested by all stages of the green peach aphid (Myzus persicae) are sprayed with an active ingredient formulation of the desired concentration. After 6 days, the efficacy in % is determined. 100% means that all the aphids have been killed and 0% means that none of the aphids have been killed.

The nature of data set [1]: log P by HPLC (OECD Guideline 117), method [a] acidic range pH 2.7. Type of data set: physicochemical. The following applies: for chromatographic logP: reversed-phase (RP) C18 HPLC column. The protocol:
(§1) The log P values were determined in accordance with OECD Guideline 117 (EC Directive 92/69/EEC) by HPLC (high-performance liquid chromatography) using reversed-phase (RP) columns (C18), by the following methods: [a] The LC-MS determination in the acidic range is carried out at pH 2.7 with 0.1% aqueous formic acid and acetonitrile (contains 0.1% formic acid) as eluents; linear gradient from 10% acetonitrile to 95% acetonitrile. [b] LC-MS determination in the neutral range is effected at pH 7.8 with 0.001 molar aqueous ammonium hydrogencarbonate solution and acetonitrile as eluents; linear gradient from 10% acetonitrile to 95% acetonitrile. Calibration is effected using unbranched alkan-2-ones (having 3 to 16 carbon atoms) with known log P values (log P values determined on the basis of the retention times by linear interpolation between two successive alkanones).

The nature of data set [2]: log P by HPLC (OECD Guideline 117), method [b] neutral range pH 7.8. The data set is classed as physicochemical. The settings on record: for chromatographic logP: reversed-phase (RP) C18 HPLC column. How it is done: as §1
For the next data set, the system named is Tetranychus urticae. The data set is described as follows: Tetranychus urticae spray test, OP-resistant. Type of data set: in vivo. The following applies: application rate 500 g/ha, bean leaf discs, after 6 days. How it is done:
Tetranychus urticae—Spray Test, OP-Resistant
(§2) Solvent: 78.0 parts by weight of acetone • • 1.5 parts by weight of dimethylformamide
(§3) Emulsifier: alkylaryl polyglycol ether
(§4) To produce a suitable active ingredient formulation, 1 part by weight of active ingredient is dissolved using the specified parts by weight of solvent and made up with water containing an emulsifier concentration of 1000 ppm until the desired concentration is attained. To produce further test concentrations, the formulation is diluted with emulsifier-containing water.
Discs of bean leaves (Phaseolus vulgaris) infested with all stages of the greenhouse red spider mite (Tetranychus urticae) are sprayed with an active ingredient formulation of the desired concentration.
After 6 days, the efficacy in % is determined. 100% meant that all the spider mites have been killed and 0% means that no spider mites have been killed.

The test system of a further data set is Phaedon cochleariae. The data set is described as follows: Phaedon cochleariae spray test. The data set is classed as in vivo. The settings on record: application rate 500 g/ha, Chinese cabbage leaf discs, after 7 days. How it is done:
Phaedon cochleariae—Spray Test
as §2, §3, §4
After 7 days, the efficacy in % is determined. 100% means that all the beetle larvae have been killed and 0% means that none of the beetle larvae have been killed.

The subject of the next data set is Boophilus microplus. The data set is described as follows: Boophilus microplus injection test. Type of data set: in vivo. The following applies: application rate 20 μg/animal, injection into engorged adult female cattle ticks, assessed after 7 days. How it is done: Boophilus microplus—Injection Test Solvent: dimethyl sulphoxide To produce a suitable active ingredient formulation, 10 mg of active ingredient are mixed with 0.5 ml of solvent and the concentrate is diluted to the desired concentration with solvent. 1 μl of the active ingredient solution is injected into the abdomen of 5 engorged adult female cattle ticks (Boophilus microplus). The animals are transferred into dishes and kept in a climate-controlled room. Efficacy is assessed after 7 days by laying of fertile eggs. Eggs which are not visibly fertile are stored in a climate-controlled cabinet until the larvae hatch after about 42 days. An efficacy of 100% means that none of the ticks has laid any fertile eggs; 0% means that all the eggs are fertile.

Molecules are shown by their SMILES.

Take `Cc1ccccc1-c1ccc2nc(-c3cccnc3)sc2c1` [compound 2]: the “efficacy (aphids killed)” value in the data set with Myzus persicae came out at 100%. Besides, the “logP[a]” value in data set [1] amounted to 4.08. The “logP[b]” value in data set [2] was 4.24. In the data set on Tetranychus urticae, the “efficacy (spider mites killed)” value is 90%.
`Cc1cccc(-c2ccc3nc(-c4cccnc4)sc3c2)c1` [compound 3, 6-(3-Methylphenyl)-2-(pyridin-3-yl)-1,3-benzothiazole]: in the data set with Myzus persicae, the pest or weed control at 500 g/ha is 90%. The chromatographic logP in data set [1] was 4.27; in data set [2], 4.41.
For `Cc1ccc(-c2ccc3nc(-c4cccnc4)sc3c2)cc1` [compound 4], the “efficacy (aphids killed)” value in the data set on Myzus persicae is on record as 100%. For the same molecule, in data set [1], the “logP[a]” value stood at 4.25. In data set [2], the “logP[b]” value stood at 4.43.
Regarding `Clc1cccc(-c2ccc3nc(-c4cccnc4)sc3c2)c1` [compound 7], the “efficacy (beetle larvae killed)” value with Phaedon cochleariae is 83%. Further, the pest or weed control at 500 g/ha with Myzus persicae came out at 100%. Besides, the chromatographic logP came out at 4.32 in data set [1] and 4.49 in data set [2].
Consider `Clc1ccc(-c2ccc3nc(-c4cccnc4)sc3c2)cc1` [compound 8], for which the “efficacy (beetle larvae killed)” value in the data set on Phaedon cochleariae was determined as 83%. Also, the “logP[a]” value in data set [1] was found to be 4.43.
On to `Cc1cc(C)c(-c2ccc3nc(-c4cccnc4)sc3c2)cc1SCC(F)(F)F` [compound 9, 6-{2,4-Dimethyl-5-[(2,2,2-trifluoroethyl)sulphanyl]phenyl}-2-(pyridin-3-yl)-1,3-benzothiazole], for which the pest or weed control at 500 g/ha in the data set with Myzus persicae worked out at 90%. For the same molecule, the values for the chromatographic logP in data set [1] and in data set [2] were 5.22 and 5.24, respectively.
Take `Cc1cc(C)c([S+]([O-])CC(F)(F)F)cc1-c1ccc2nc(-c3cccnc3)sc2c1` (centres unmarked) [compound 10, 6-{2,4-Dimethyl-5-[(2,2,2-trifluoroethyl)sulphinyl]phenyl}-2-(pyridin-3-yl)-1,3-benzothiazole]: the pest or weed control at 500 g/ha in the data set on Myzus persicae stood at 90%. The chromatographic logP in data set [1] was found to be 3.45; in data set [2] it was 3.4.
In the same order, the values of `Cc1cc(F)c(-c2ccc3nc(-c4cccnc4)sc3c2)cc1SCC(F)(F)F` [compound 11, 6-{2-Fluoro-4-methyl-5-[(2,2,2-trifluoroethyl)sulphanyl]phenyl}-2-(pyridin-3-yl)-1,3-benzothiazole] are 90%, 4.96 and 4.97.
The like results for `Cc1cc(F)c(-c2ccc3nc(-c4cccnc4)sc3c2)cc1[S+]([O-])CC(F)(F)F` (centres unmarked) [compound 12, 6-{2-Fluoro-4-methyl-5-[(2,2,2-trifluoroethyl)sulphinyl]phenyl}-2-(pyridin-3-yl)-1,3-benzothiazole] were, in that order, 90%, 3.33 and 3.33.
As to `FC(F)(F)CNc1ccc2nc(-c3cccnc3)sc2c1` [compound 13, 2-(Pyridin-3-yl)-N-(2,2,2-trifluoroethyl)-1,3-benzothiazol-6-amine], the pest or weed control at 500 g/ha in the data set with Myzus persicae was found to be 90%. For the same molecule, the chromatographic logP in data set [1] turned out to be 2.36; in data set [2], 2.47.
For the molecule `Cc1cc(C)c(SCC(F)(F)F)cc1Nc1ccc2nc(-c3cccnc3)sc2c1` [compound 18, N-{2,4-Dimethyl-5-[(2,2,2-trifluoroethyl)sulphanyl]phenyl}-2-(pyridin-3-yl)-1,3-benzothiazol-6-amine], the pest or weed control at 500 g/ha in the data set on Myzus persicae was found to be 90%. For the same molecule, the chromatographic logP in data set [1] turned out to be 4.45; in data set [2], 4.51.
In the same order, the values of `Cc1cc(F)c(Nc2ccc3nc(-c4cccnc4)sc3c2)cc1SCC(F)(F)F` [compound 20, N-{2-Fluoro-4-methyl-5-[(2,2,2-trifluoroethyl)sulphanyl]phenyl}-2-(pyridin-3-yl)-1,3-benzothiazol-6-amine] are 90%, 4.18 and 4.22.
In the case of `c1cncc(-c2nc3ccc(-n4ccnc4)cc3s2)c1` [compound 25, 6-(1H-Imidazol-1-yl)-2-(pyridin-3-yl)-1,3-benzothiazole], in the data set with Myzus persicae, the pest or weed control at 500 g/ha worked out at 90%. Moreover, the “efficacy (laying of fertile eggs)” value in the data set on Boophilus microplus was found to be 80%. This molecule also returned a chromatographic logP in data set [2] of 1.64.
For `FC(F)(F)c1cnn(-c2ccc3nc(-c4cccnc4)sc3c2)c1` [compound 27], the “efficacy (aphids killed)” value in the data set on Myzus persicae came out at 90%. Also, in data set [2], the “logP[b]” value is 3.42.
Regarding `FC(F)(F)c1ccn(-c2ccc3nc(-c4cccnc4)sc3c2)n1` [compound 28, 2-(Pyridin-3-yl)-6-[3-(trifluoromethyl)-1H-pyrazol-1-yl]-1,3-benzothiazole], the pest or weed control at 500 g/ha in the data set with Myzus persicae was determined as 100%. In the data set on Boophilus microplus, the “efficacy (laying of fertile eggs)” value was determined as 80%. In data set [2], this molecule showed a chromatographic logP of 3.46.
Regarding `c1cnc(-c2ccn(-c3ccc4nc(-c5cccnc5)sc4c3)n2)nc1` [compound 30, 2-(Pyridin-3-yl)-6-[3-(pyrimidin-2-yl)-1H-pyrazol-1-yl]-1,3-benzothiazole], in the data set on Myzus persicae, the pest or weed control at 500 g/ha amounted to 90%. In data set [2], this molecule came in with a chromatographic logP of 2.
Consider `C[S+]([O-])Cn1cc(-c2ccc3nc(-c4cccnc4)sc3c2)cn1` (centres unmarked) [compound 39, 6-{1-[(Methylsulphinyl)methyl]-1H-pyrazol-4-yl}-2-(pyridin-3-yl)-1,3-benzothiazole], for which the pest or weed control at 500 g/ha with Myzus persicae is 100%. Moreover, the chromatographic logP is 1.32 in data set [1] and 1.51 in data set [2].
On to `Cc1cnn(-c2ccc3nc(-c4cccnc4)sc3c2)c1` [compound 45], for which the “efficacy (aphids killed)” value with Myzus persicae worked out at 90%. For the same molecule, the “logP[a]” value in data set [1] is given as 2.62. Besides, in data set [2], the “logP[b]” value is recorded as 2.71.
The like results for `Cn1cnn(-c2ccc3nc(-c4cccnc4)sc3c2)c1=S` [compound 46] were, in that order, 90%, 1.35 and 1.49.
In the same order, the values of `Cn1c(=O)n(C)n(-c2ccc3nc(-c4cccnc4)sc3c2)c1=O` [compound 47] are 100%, 1.52 and 1.63.
In the same order, the values of `Cc1nn(-c2ccc3nc(-c4cccnc4)sc3c2)c(=O)n1C` [compound 48] are 90%, 1.66 and 1.81.
`Cc1nn(-c2ccc3nc(-c4cccnc4)sc3c2)c(=S)n1C` [compound 49]: the “efficacy (aphids killed)” value with Myzus persicae came out at 90%. For the same molecule, in data set [1], the “logP[a]” value is 1.41. Besides, in data set [2], the “logP[b]” value is on record as 1.58.
In the same order, the values of `CSc1nn(-c2ccc3nc(-c4cccnc4)sc3c2)c(=O)n1C` [compound 51] are 100%, 2.43 and 2.56.
With `Cn1c(=O)cnn(-c2ccc3nc(-c4cccnc4)sc3c2)c1=O` [compound 56, 4-Methyl-2-[2-(pyridin-3-yl)-1,3-benzothiazol-6-yl]-1,2,4-triazine-3,5(2H,4H)-dione], in the data set on Myzus persicae, the pest or weed control at 500 g/ha came out at 90%. In addition, the chromatographic logP in data set [1] came to 1.79; in data set [2], 1.84.
